Reference: patent US20060205826A1, “Method of using carotenoids in the prevention of cognitive decline and for other neuroprotection functions” (priority 2005, published 2006)
“Also recorded” adds a separate entry of the source.

Tests used:
diabetic mouse brain = conditions: diabetic mice killed 20 days after streptozotocin administration; Saravia et al. 2004; cited from earlier work
diabetic rats = conditions: Lupien et al. (2003); cited from earlier work
[1] = system: MDA, a lipid peroxidation product; assay: MDA concentration by liquid chromatography in serum, eye and hippocampus of diabetic mice; type: in vivo
Procedure: (§1) Male albino mice were used throughout the study, housed in a environmentally regulated room on a dark-light cycle of 12 hours with free access to food and water. Principles of laboratory animal care (NIH publication no. 85-23, revised 1985) were followed, as well as specific Spanish regulations. Animals were made diabetic with a single subcutaneous injection of 200 mg alloxan/kg body weight (66 mg/ml) in 0.1 M citrate buffer, pH 4.5, at day 0 of the experiment. Control mice were injected with the same volume of vehicle also at day 0 of the experiment.
Mice were identified as diabetic on the basis of blood glucose levels (higher than 16 mM at least 4 days after alloxan treatment). Animals were divided into subgroups as required by the experiment (control, control+lutein, diabetic, diabetic+lutein, diabetic+insulin, diabetic+insulin+lutein). […] Insulin treated animals were injected daily with 500 mU/g body weight since day 4 until the end of the experiment. Mice were killed by cervical dislocation on day 14, and hippocampus and retina were removed and homogenized in pre-chilled 0.2 M potassium phosphate buffer, pH 7.0. These homogenates were used to assay protein, GPx activity and MDA and GSH concentrations. Samples were kept frozen (−80° C.) until biochemical assays were performed. Blood was taken from the tail vein daily to assay blood glucose levels. Glycated hemoglobin was determined in blood samples obtained by heart puncture immediately before killing the animals.
MDA, a lipid peroxidation product, concentration was measured by liquid chromatography according to a modification of the method of Richard et al. (1992) as previously described (Romero et al., 1998). Briefly, 0.1 ml of sample (or standard solutions prepared daily from 1,1,3,3-tetramethoxypropane) and 0.75 ml of working solution (thiobarbituric acid 0.37% and perchloric acid 6.4%; 2/1, v/v) were mixed and heated to 95° C. for 1 h. After cooling (10 min in ice water bath), the flocculent precipitate was removed by centrifugation at 3,200×g for 10 min. The supernatant was neutralized and filtered (0.22 μm) prior to injection on an ODS column 5 μm column (250×4.6 mm). Mobile phase consisted in 50 mM phosphate buffer (pH 6.0): methanol (58:42, v/v). Isocratic separation was performed with 1.0 ml/min flow (HPLC System 325, Kontron) and detection at 532 nm (UV/VIS HPLC Detector 332, Kontron). Calibration curves were run daily.

GPx activity = GPx activity in eye and hippocampus homogenate of diabetic mice; type: in vivo
Procedure: (§2) Male albino mice were used throughout the study, housed in a environmentally regulated room on a dark-light cycle of 12 hours with free access to food and water. Principles of laboratory animal care (NIH publication no. 85-23, revised 1985) were followed, as well as specific Spanish regulations. Animals were made diabetic with a single subcutaneous injection of 200 mg alloxan/kg body weight (66 mg/ml) in 0.1 M citrate buffer, pH 4.5, at day 0 of the experiment. Control mice were injected with the same volume of vehicle also at day 0 of the experiment. Mice were identified as diabetic on the basis of blood glucose levels (higher than 16 mM at least 4 days after alloxan treatment). Animals were divided into subgroups as required by the experiment (control, control+lutein, diabetic, diabetic+lutein, diabetic+insulin, diabetic+insulin+lutein). […] Insulin treated animals were injected daily with 500 mU/g body weight since day 4 until the end of the experiment. Mice were killed by cervical dislocation on day 14, and hippocampus and retina were removed and homogenized in pre-chilled 0.2 M potassium phosphate buffer, pH 7.0. These homogenates were used to assay protein, GPx activity and MDA and GSH concentrations. Samples were kept frozen (−80° C.) until biochemical assays were performed. Blood was taken from the tail vein daily to assay blood glucose levels. Glycated hemoglobin was determined in blood samples obtained by heart puncture immediately before killing the animals. GPx activity was assayed as reported by Lawrence et al. (1978) towards hydrogen peroxide. The disappearance of NADPH was followed spectrophotometrically at 340 nm. The reaction mixture consisted of 240 mU/ml of glutathione disulfide reductase, 1 mM GSH, 0.15 mM NADPH in 0.1 M potassium phosphate buffer, pH 7.0, containing 1 mM EDTA and 1 mM sodium azide; 50 μl sample were added to this mixture and allowed to equilibrate at 37° C. for 3 min. reaction was started by the addition of 1.5 mM hydrogen peroxide to adjust the final volume of the assay mixture to 1 ml.

GSH = GSH content in hippocampus homogenate of diabetic mice; type: in vivo; conditions: lutein 0.2 mg/kg p.o. or insulin 500 mU/g s.c. on days 4-13
Procedure: as §1
Mice were identified as diabetic on the basis of blood glucose levels (higher than 16 mM at least 4 days after alloxan treatment). Animals were divided into subgroups as required by the experiment (control, control+lutein, diabetic, diabetic+lutein, diabetic+insulin, diabetic+insulin+lutein). Lutein was administered daily at a dose of 0.2 mg/kg p.o since day 4 after alloxan or citrate buffer injection until the end of the experiment. […] Glycated hemoglobin was determined in blood samples obtained by heart puncture immediately before killing the animals.
The GSH content of eye homogenate was quatitated by the method of Reed et al. (Reed et al., 1980). […] These products are quickly separated by HPLC which allows the quantification of nanomolars levels of GSH.

alloxan diabetic mice = assay: Electroretinogram (ERG) amplitude in diabetic mice; type: in vivo; conditions: lutein 100 mg/kg p.o. or insulin 500 mU/g s.c. on days 4-13
Procedure: as §2, with “Samples were kept frozen (−80° C.) until biochemical assays were performed. Blood was taken from the tail vein daily to assay blood glucose levels.” left out, “animals.” for “animals. GPx activity was assayed as reported by Lawrence et al. (1978) towards hydrogen peroxide. The disappearance of NADPH was followed spectrophotometrically at 340 nm. The reaction mixture consisted of 240 mU/ml of glutathione disulfide reductase, 1 mM GSH, 0.15 mM NADPH in 0.1 M potassium phosphate buffer, pH 7.0, containing 1 mM EDTA and 1 mM sodium azide; 50 μl sample were added to this mixture and allowed to equilibrate at 37° C. for 3 min. reaction was started by the addition of 1.5 mM hydrogen peroxide to adjust the final volume of the assay mixture to 1 ml.”

diabetic rodents = conditions: insulin treatment from the onset of diabetes, Biessels et al 1998; cited from earlier work
[2] = lutein 100 mg/kg p.o. or insulin 500 mU/g body weight s.c. on days 4-13

## C[C@]12CC[C@@H]3c4ccc(O)cc4CC[C@H]3[C@@H]1CC[C@@H]2O [17beta-oestradiol]
Diabetic mouse brain
  brain cell proliferation: restored

## IGF-I
Diabetic rats
  cognition-related performance in the water maze: prevent loss of cognition-related performance

## insulin [reference compound]
[1]; lutein 0.2 mg/kg p.o. or insulin 500 mU/g body weight s.c. on days 4-13
  MDA levels in hippocampus: restored; also recorded: able to prevent this effect
[1]; [2]
  MDA levels in ocular tissue: restored; also recorded: able to prevent this effect
  MDA levels in serum: restored
GPx activity; eye homogenate without lens, lutein 100 mg/kg p.o. or insulin 500 mU/g s.c. on days 4-13
  retinal GPx activity: partially reversed
GPx activity; lutein 0.2 mg/kg p.o. or insulin 500 mU/g s.c. on days 4-13
  GPx activity in hippocampus homogenate: restored
GSH
  GSH content in hippocampus homogenate: restored
Alloxan diabetic mice
  ERG amplitude (mostly b-wave): partially reversed
Diabetic rodents
  learning impairment in Morris water maze: can prevent this learning impairment
